Measured values from patent US12391962B2, “Targeting peptide to deliver a compound to oocytes” (THE PENN STATE RESEARCH FOUNDATION, priority 2017, dated 2025).

Columns and labels:
B. tabaci ovaries = test: Validation of the BtKV ovary targeting ligand (epifluorescence of dissected ovaries); type: in vivo, Bemisia tabaci; conditions: ovaries dissected 24 hours post-injection; vs PBS-injected controls
Protocol: For initial experiments B. tabaci adults of unknown age and mating status were aspirated from the colony cage into 2-dram screw cap vials, placed in ice to anesthetize the insects, sexed, and transferred to a standard plain glass slide with double-sided tape on a chill table. For later experiments we established a synchronous colony so that we could control for the age of injected insects (see below). For localization of BtKV fusion protein into the embryos, female B. tabaci were injected in the abdomen with BtKV-mCherry fusion protein (3 mg/ml) or PBS control using quartz capillary needles. Samples were collected 24 hours post injection and ovaries dissected onto a concavity microscope slide with a glass coverslip and imaged by epifluorescence microscopy.
We therefore designed a new targeting peptide suitable for this insect species based on its endogenous vitellogenin protein (“BtKV”; […] (SEQ ID NO: 30)) (see methods). B. tabaci oocyte development is asynchronous with stage I, II, III, and IV at 11 days post eclosion or older^19 where oocytes are always developing. Developmental phase II oocytes have the highest amount of vitellogenin uptake via endocytosis and nutrient cord^19. After injection of BtKV-mCherry into reproductive adult B. tabaci females, ovaries were dissected after 24 hours and visualized for red fluorescence.

B. tabaci white gene = test: Knockout of the B. tabaci white gene by ReMOT Control (adult female injection); type: in vivo, Bemisia tabaci; conditions: BtKV as the targeting peptide
Protocol: The females were injected and placed on a piece of soybean leaflet in a petri dish with a moist paper towel wrapped around the stem and another paper towel on the bottom plate to prolong the life of the leaflet. Water and liquid fertilizer were added as needed. Females were removed from the leaflet 2 weeks post injection. The petri dishes were incubated at 28° C., 16L/8D cycle, in a humidified Heratherm IMH750-S reach-in chamber, and the progeny of injected females screened visually for altered eye color in nymphs or adults using an Olympus SZX7 stereomicroscope. Mutations in insects showing altered eye color were confirmed by PCR using PHIRE Tissue Direct PCR Master Mix (Thermo Fischer Scientific), the amplicon was cloned into pJET1.2, and clones were submitted for Sanger sequencing.
For proof of principle gene editing experiments, we chose the white gene, which is an ABC transporter protein responsible for transport of ommochrome pigments into the eyes.

KPYGVYKTMEDSV (listed as Bemisia tabaci) [BtKV]
fluorescent cargo in oocytes (B. tabaci ovaries): visible in dissected mature oocytes
independent replicate injection experiments from which white-eye nymphal offspring were recovered (B. tabaci white gene): 7 of 14
